This experiment addresses T1, acetolactate synthase (ALS), Isolate 7 (+/+) extract (Nicotiana tabacum, UniProt P09114).
T1 construct: ALS activity was then assayed in extracts prepared from these cell suspension cultures; endogenous in cells; host or cells: N. tabacum cv; Xanthi cell suspension cultures (H1 parental haploid line; +/+ segregants), 0-50% ammonium sulfate fraction of the extract
T1 sequence (P09114 92-664): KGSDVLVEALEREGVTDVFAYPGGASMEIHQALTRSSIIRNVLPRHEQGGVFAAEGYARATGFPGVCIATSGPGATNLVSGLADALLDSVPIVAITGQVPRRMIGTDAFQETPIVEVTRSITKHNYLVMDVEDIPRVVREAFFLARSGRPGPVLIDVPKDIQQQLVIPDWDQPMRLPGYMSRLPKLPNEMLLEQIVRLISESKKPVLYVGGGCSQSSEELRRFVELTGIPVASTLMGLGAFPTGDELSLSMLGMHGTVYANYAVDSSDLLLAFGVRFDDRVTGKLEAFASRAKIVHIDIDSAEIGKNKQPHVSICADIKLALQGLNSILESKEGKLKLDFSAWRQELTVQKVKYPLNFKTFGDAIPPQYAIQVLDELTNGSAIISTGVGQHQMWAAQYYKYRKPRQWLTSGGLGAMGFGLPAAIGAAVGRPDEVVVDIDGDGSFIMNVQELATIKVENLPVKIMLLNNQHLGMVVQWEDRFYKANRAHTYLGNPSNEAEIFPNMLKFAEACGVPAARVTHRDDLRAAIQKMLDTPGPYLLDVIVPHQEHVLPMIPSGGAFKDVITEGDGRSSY
Description: ALS activity assay in cell extracts. The experiment is classed as biochemical. To be noted: read-out: Uninhibited activity (%) in the Presence of Chlorsulfuron. As for the experimental part:
Cell suspension cultures of normal (H1) and homozygous mutant (Isolate 16) cell lines were washed in C1 liquid medium. After washing, cells were extracted in a 100 mM potassium phosphate buffer (pH 7.5) containing 0.5 mM MgCl2, 1 mM sodium pyruvate, 0.5 mM thiamine pyrophosphate, 10 micromolar flavine-adenine dinucleotide (FAD) and 10 percent (by volume) glycerol. Polyclar AT (BDH Chemicals Ltd) was added to a final concentration of 250 mg per gram fresh weight of tissue. After centrifugation at 27,000xg for 15 minutes at 4°, an equal volume of a saturated solution of amminium sulfate was added to the supernatant fraction. The resultant precipitate (representing a 0 to 50 percent ammonium sulfate fraction) was redissolved in 100 mM potassium phosphate buffer (pH 7.5) containing 0.5 mM MgCl2, 1 mM sodium pyruvate, and salts were removed by passage through a Sephadex G-25 (Pharmacia PD-10) column.
ALS activity was assayed in a total volume of 500 microliters containing 100 microliters of the column eluate, 65 mM potassium phosphate buffer (pH 7.5) containing 10 mM MgCl2, 40 mM sodium pyruvate, 250 micromolar thiamine pyrophosphate, 23 micromolar FAD, and 1, 5, 10, 50, 100, 500 or 1000 ppb chlorsulfuron or sulfometuron-methyl. […] Acetoin content was then measured by a modification of the procedure described by Westerfield, J. Biol. Chem. 161:495 (1945). […] Tubes were then centrifuged, and the optical density was read at 530 nm. Background optical densities, which were subtracted from the optical density values of the reactions, were determined for each extract from parallel assays to which the enzyme extract was added after the addition of 6N H2 SO4. Protein concentrations were measured with Bio-Rad Protein Assay reagent with bovine serum albumin as a standard. […]
Responses to chlorsulfuron were determined for ALS activities in extracts of cells suspension cultures derived from nine individuals that differed with resepct to the S4 mutation. […] Callus and plant phenotypes were determined by growth responses of cell cultures and seedlings, respectively, on herbicide-supplemented medium. […]

`COc1nc(C)nc(NC(=O)NS(=O)(=O)c2ccccc2Cl)n1` [Chlorsulfuron, chlorsulfuron]: the remaining ALS activity (% of uninhibited) at 0.01 ppm (10 ppb) was found to be 36%. The remaining ALS activity (% of uninhibited) at 0.03 ppm (30 ppb) is 22%. Moreover, under “100 ppb”, the remaining ALS activity (% of uninhibited) at 0.1 ppm was 16%.

Source of the values: patent US4774381A, “Herbicide resistant tobacco” (E. I. Du Pont de Nemours and Company, priority 1985, dated 1988).
